Laboratory results published in ChEMBL document CHEMBL1127973, “A comparative molecular field analysis derived model of the binding of taxol analogues to microtubules” (Bioorg Med Chem Lett, 1994).

Legend:
Tubulin (Homo sapiens) [1] = biological target: T1, Tubulin (Homo sapiens) (UniProt P68371+Q9H4B7+P0DPH7+P68366+Q13509+Q71U36+P04350+Q3ZCM7+P07437+P68363+Q9BQE3+Q6PEY2+Q13885+Q9BVA1+Q9BUF5); experiment: Binding affinity to microtubules, activity expressed as ID50 of compound/ID50 of paclitaxel; assay type: protein-complex assay
Tubulin (Homo sapiens) [2] = biological target: T1, Tubulin (Homo sapiens); experiment: Binding affinity to microtubules, activity expressed as log 1/ID50 of compound/ID50 of paclitaxel; assay type: protein-complex assay

Row | SMILES | ID50 ratio (Tubulin (Homo sapiens) [1]) | Log 1/ratio (Tubulin (Homo sapiens) [2])
1 | CC(=O)O[C@@]12CO[C@@H]1C[C@H](O)[C@@]1(C)C(=O)[C@H](O)C3=C(C)[C@@H](OC(=O)[C@H](NC(=O)c4ccccc4)[C@@H](O)c4ccccc4)C[C@@](O)([C@@H](OC(=O)c4ccccc4)[C@H]21)C3(C)C | 10 | -1
2 | CC(=O)O[C@@]12CO[C@@H]1C[C@H](O)[C@@]1(C)C(=O)[C@H](O)C3=C(C)[C@@H](OC(=O)[C@H](O)Cc4ccccc4)C[C@@](O)([C@@H](OC(=O)c4ccccc4)[C@H]21)C3(C)C | 4.5 | -0.653
3 | CC(=O)O[C@H]1C(=O)[C@]2(C)[C@@H](OC(=O)[C@H](N)CCC(=O)O)C[C@H]3OC[C@@]3(OC(C)=O)[C@H]2[C@H](OC(=O)c2ccccc2)[C@]2(O)C[C@H](OC(=O)[C@H](O)[C@@H](NC(=O)c3ccccc3)c3ccccc3)C(C)=C1C2(C)C | 1 | 0
4 | CC(=O)O[C@H]1C(=O)[C@]2(C)[C@@H](OC(=O)[C@H](O)[C@@H](O)[C@H](O)CO)C[C@H]3OC[C@@]3(OC(C)=O)[C@H]2[C@H](OC(=O)c2ccccc2)[C@]2(O)C[C@H](OC(=O)[C@H](O)[C@@H](NC(=O)c3ccccc3)c3ccccc3)C(C)=C1C2(C)C | 0.4 | -0.398
5 | CC(=O)O[C@@]12CO[C@@H]1C[C@H](O)[C@@]1(C)C(=O)[C@H](O)C3=C(C)[C@@H](OC(=O)[C@H](NC(=O)OC(C)(C)C)[C@@H](O)c4ccccc4)C[C@@](O)([C@@H](OC(=O)c4ccccc4)[C@H]21)C3(C)C | 10 | -1
6 | CC(=O)O[C@@]12CO[C@@H]1C[C@H](O)[C@@]1(C)C(=O)[C@H](O)C3=C(C)[C@@H](OC(=O)[C@@H](NC(=O)c4ccccc4)[C@H](O)c4ccccc4)C[C@@](O)([C@@H](OC(=O)c4ccccc4)[C@H]21)C3(C)C | 170 | -2.23
7 | CC(=O)O[C@H]1C(=O)[C@@]2(C)[C@H]([C@H](OC(=O)c3ccccc3)[C@]3(O)C[C@H](OC(=O)[C@H](O)[C@@H](NC(=O)c4ccc(Cl)cc4)c4ccccc4)C(C)=C1C3(C)C)[C@]1(OC(C)=O)CO[C@@H]1C[C@@H]2O | 2.4 | -0.38
8 | CC(=O)O[C@@]12CO[C@@H]1C[C@H](O)[C@@]1(C)C(=O)[C@H](O)C3=C(C)[C@@H](OC(=O)[C@@H](O)[C@@H](N)c4ccccc4)C[C@@](O)([C@@H](OC(=O)c4ccccc4)[C@H]21)C3(C)C | 30 | -1.48
9 | CC(=O)O[C@@]12CO[C@@H]1C[C@H](O)[C@@]1(C)C(=O)[C@H](O)C3=C(C)[C@@H](OC(=O)/C=C/c4ccccc4)C[C@@](O)([C@@H](OC(=O)c4ccccc4)[C@H]21)C3(C)C | 23 | -1.37
10 | CC(=O)O[C@@]12CO[C@@H]1C[C@H](O)[C@@]1(C)C(=O)[C@H](O)C3=C(C)[C@@H](OC(=O)[C@@H](NC(=O)OC(C)(C)C)[C@H](O)c4ccccc4)C[C@@](O)([C@@H](OC(=O)c4ccccc4)[C@H]21)C3(C)C | 160 | -2.2
11 | CC(=O)O[C@@]12CO[C@@H]1C[C@H](O)[C@@]1(C)C(=O)[C@H](O)C3=C(C)[C@@H](OC(=O)[C@@H](O)[C@H](NC(=O)c4ccccc4)c4ccccc4)C[C@@](O)([C@@H](OC(=O)c4ccccc4)[C@H]21)C3(C)C | 4 | -0.602
12 | CC(=O)O[C@@]12CO[C@@H]1C[C@H](O)[C@@]1(C)C(=O)[C@H](O)C3=C(C)[C@@H](OC(=O)[C@@H](O)Cc4ccccc4)C[C@@](O)([C@@H](OC(=O)c4ccccc4)[C@H]21)C3(C)C | 3.5 | -0.544
13 | CC(=O)O[C@@]12CO[C@@H]1C[C@H](O)[C@@]1(C)C(=O)[C@H](O)C3=C(C)[C@@H](OC(=O)[C@H](O)[C@H](N)c4ccccc4)C[C@@](O)([C@@H](OC(=O)c4ccccc4)[C@H]21)C3(C)C | 30 | -1.48
14 | CC(=O)O[C@H]1C(=O)[C@@]2(C)[C@H]([C@H](OC(=O)c3ccccc3)[C@]3(O)C[C@H](OC(=O)[C@H](O)[C@@H](NC(=O)c4ccccc4)c4ccc(O)cc4)C(C)=C1C3(C)C)[C@]1(OC(C)=O)CO[C@@H]1C[C@@H]2O | 0.8 | 0.0969
15 | CC(=O)O[C@H]1C(=O)[C@@]2(C)[C@H]([C@H](OC(=O)c3ccccc3)[C@]3(O)C[C@H](OC(=O)[C@H](O)[C@@H](NC(=O)c4ccccc4)c4cccc(Cl)c4)C(C)=C1C3(C)C)[C@]1(OC(C)=O)CO[C@@H]1C[C@@H]2O | 4.4 | -0.644
16 | CC(=O)O[C@H]1C(=O)[C@@]2(C)[C@H]([C@H](OC(=O)c3ccccc3)[C@]3(O)C[C@H](OC(=O)[C@@H](O)[C@H](NC(=O)OC(C)(C)C)c4ccccc4)C(C)=C1C3(C)C)[C@]1(OC(C)=O)CO[C@@H]1C[C@@H]2O | 30 | -1.48
17 | CC(=O)O[C@@]12CO[C@@H]1C[C@H](OC(=O)[C@H](O)[C@@H](O)[C@H](O)CO)[C@@]1(C)C(=O)[C@H](O)C3=C(C)[C@@H](OC(=O)[C@H](O)[C@@H](NC(=O)c4ccccc4)c4ccccc4)C[C@@](O)([C@@H](OC(=O)c4ccccc4)[C@H]21)C3(C)C | 0.6 | 0.222
18 | CC(=O)O[C@@]12CO[C@@H]1C[C@H](OC(=O)[C@H](N)Cc1ccccc1)[C@@]1(C)C(=O)[C@H](O)C3=C(C)[C@@H](OC(=O)[C@H](O)[C@@H](NC(=O)OC(C)(C)C)c4ccccc4)C[C@@](O)([C@@H](OC(=O)c4ccccc4)[C@H]21)C3(C)C | 1 | 0
19 | CC(=O)O[C@@]12CO[C@@H]1C[C@H](O)[C@@]1(C)C(=O)[C@H](O)C3=C(C)[C@@H](OC(=O)[C@H](O)[C@@H](NC(=O)c4ccccc4)c4ccccc4)C[C@@](O)([C@@H](OC(=O)c4ccccc4)[C@H]21)C3(C)C | 1.3 | -0.114
20 | CC(=O)O[C@@]12CO[C@@H]1C[C@H](O)[C@@]1(C)C(=O)[C@H](O)C3=C(C)[C@@H](OC(=O)[C@@H](O)[C@@H](NC(=O)c4ccccc4)c4ccccc4)C[C@@](O)([C@@H](OC(=O)c4ccccc4)[C@H]21)C3(C)C | 1.3 | -0.114
21 | CC(=O)O[C@H]1C(=O)[C@@]2(C)[C@H]([C@H](OC(=O)c3ccccc3)[C@]3(O)C[C@H](OC(=O)[C@H](OC(C)=O)[C@@H](NC(=O)c4ccccc4)c4ccccc4)C(C)=C1C3(C)C)[C@]1(OC(C)=O)CO[C@@H]1C[C@@H]2O | 30 | -1.48
22 | CC(=O)O[C@H]1C(=O)[C@@]2(C)[C@H]([C@H](OC(=O)c3ccccc3)[C@]3(O)C[C@H](OC(=O)[C@H](O)[C@@H](NC(=O)c4ccccc4)c4ccccc4)C(C)=C1C3(C)C)[C@]1(OC(C)=O)CO[C@@H]1C[C@@H]2O (stereo in doubt; 14) | 0.8 | 0.0969
23 | CC(=O)O[C@H]1C(=O)[C@@]2(C)[C@H]([C@H](OC(=O)c3ccccc3)[C@]3(O)C[C@H](OC(=O)[C@H](O)[C@@H](NC(=O)c4ccccc4)c4ccc(F)cc4)C(C)=C1C3(C)C)[C@]1(OC(C)=O)CO[C@@H]1C[C@@H]2O | 1.1 | -0.0414
24 | CC(=O)O[C@H]1C(=O)[C@@]2(C)[C@H]([C@H](OC(=O)c3ccccc3)[C@]3(O)C[C@H](OC(=O)[C@@H](NC(=O)c4ccccc4)[C@H](O)c4ccccc4)C(C)=C1C3(C)C)[C@]1(OC(C)=O)CO[C@@H]1C[C@@H]2O | 110 | -2.04
